Data from ChEMBL document CHEMBL5046249, “Synthesis, biological evaluation and cellular localization study of fluorescent derivatives of Jiyuan Oridonin A” (Eur J Med Chem, 2022).

Tests used:
Assay type in all cases: functional, cell-based
HGC-27 = test: Antiproliferative activity against human HGC-27 cells assessed as inhibition of cell growth measured after 72 hrs by SRB assay; conditions: HGC-27, 72 h
MGC-803 = test: Antiproliferative activity against human MGC-803 cells assessed as inhibition of cell growth measured after 72 hrs by SRB assay; conditions: MGC-803, 72 h
PC-3 = test: Antiproliferative activity against human PC-3 cells assessed as inhibition of cell growth measured after 72 hrs by SRB assay; conditions: PC-3, 72 h
SW1990 = test: Antiproliferative activity against human SW1990 cells assessed as inhibition of cell growth measured after 72 hrs by SRB assay; conditions: SW1990, 72 h
TE-1 = test: Antiproliferative activity against human TE-1 cells assessed as inhibition of cell growth measured after 72 hrs by SRB assay; conditions: TE-1, 72 h

| Structure (SMILES) | IC50 (HGC-27) [nM] | IC50 (MGC-803) [nM] | IC50 (PC-3) [nM] | IC50 (SW1990) [nM] | IC50 (TE-1) [µM] |
| --- | --- | --- | --- | --- | --- |
| [N-]=[N+]=NCCN1C(=O)c2cccc3c(N4CCCCC4)ccc(c23)C1=O | > 32000 | > 32000 | > 32000 | > 32000 | > 32 |
| C#CCCCO[C@@H]1O[C@@H]2C[C@@H]3C(C)(C)CCC[C@]13[C@@H]1[C@@H](O)C[C@H]3C(=C)C(=O)[C@@]21[C@@H]3O | 2680 | 2460 | 5370 | 3220 | 4.23 |
| C=C1C(=O)[C@]23[C@H](O)[C@H]1C[C@H](O)[C@H]2[C@]12CCCC(C)(C)[C@H]1C[C@H]3O[C@H]2OCCCCCCc1cn(CCOCCOCCOCCN2C(=O)c3cccc4c(N5CCCCC5)ccc(c34)C2=O)nn1 | 1440 | 3870 | 1270 | 2640 | 3.08 |
| C#CCCCCCCO[C@@H]1O[C@@H]2C[C@@H]3C(C)(C)CCC[C@]13[C@@H]1[C@@H](O)C[C@H]3C(=C)C(=O)[C@@]21[C@@H]3O | 3010 | 1970 | 2880 | 3260 | 3.18 |
| C=C1C(=O)[C@]23[C@H](O)[C@H]1C[C@H](O)[C@H]2[C@]12CCCC(C)(C)[C@H]1C[C@H]3O[C@H]2OCCCCCCc1cn(CCOCCOCCN2C(=O)c3cccc4c(N5CCCCC5)ccc(c34)C2=O)nn1 | 1880 | 3010 | 970 | 2820 | 1.53 |
| C=C1C(=O)[C@]23[C@H](O)[C@H]1C[C@H](O)[C@H]2[C@]12CCCC(C)(C)[C@H]1C[C@H]3O[C@H]2OCCCCc1cn(CCCCCN2C(=O)c3cccc4c(N5CCCCC5)ccc(c34)C2=O)nn1 | 1950 | 3070 | 1270 | 2690 | 6.38 |
| C=C1C(=O)[C@]23[C@H](O)[C@H]1C[C@H](O)[C@H]2[C@]12CCCC(C)(C)[C@H]1C[C@H]3O[C@H]2OCCCCc1cn(CCN2C(=O)c3cccc4c(N5CCCCC5)ccc(c34)C2=O)nn1 | 6230 | 1210 | 1440 | 1370 | 2.25 |
| C=C1C(=O)[C@]23[C@H](O)[C@H]1C[C@H](O)[C@H]2[C@]12CCCC(C)(C)[C@H]1C[C@H]3O[C@H]2OCCCCc1cn(CCOCCN2C(=O)c3cccc4c(N5CCCCC5)ccc(c34)C2=O)nn1 | 1950 | 3210 | 1240 | 2250 | 2.7 |
| C=C1C(=O)[C@]23[C@H](O)[C@H]1C[C@H](O)[C@H]2[C@]12CCCC(C)(C)[C@H]1C[C@H]3O[C@H]2OCCCCCCc1cn(CCCCCCN2C(=O)c3cccc4c(N5CCCCC5)ccc(c34)C2=O)nn1 | 5880 | 3650 | 3000 | 4880 | 4.05 |
| C=C1C(=O)[C@]23[C@H](O)[C@H]1C[C@H](O)[C@H]2[C@]12CCCC(C)(C)[C@H]1C[C@H]3O[C@H]2OCCCCCc1cn(CCCN2C(=O)c3cccc4c(N5CCCCC5)ccc(c34)C2=O)nn1 | 3260 | 2430 | 2490 | 3650 | 4.62 |
| [N-]=[N+]=NCCOCCOCCN1C(=O)c2cccc3c(N4CCCCC4)ccc(c23)C1=O | > 32000 | > 32000 | > 32000 | > 32000 | > 32 |
| C=C1C(=O)[C@]23[C@H](O)[C@H]1C[C@H](O)[C@H]2[C@]12CCCC(C)(C)[C@H]1C[C@H]3O[C@H]2OCCc1cn(CCCCCN2C(=O)c3cccc4c(N5CCCCC5)ccc(c34)C2=O)nn1 | 2450 | 1510 | 500 | 2440 | 3.05 |
| C=C1C(=O)[C@]23[C@H](O)[C@H]1C[C@H](O)[C@H]2[C@]12CCCC(C)(C)[C@H]1C[C@H]3O[C@H]2OCCCCc1cn(CCOCCOCCOCCN2C(=O)c3cccc4c(N5CCCCC5)ccc(c34)C2=O)nn1 | 2490 | 3130 | 1040 | 4350 | 2.43 |
| C=C1C(=O)[C@]23[C@H](O)[C@H]1C[C@H](O)[C@H]2[C@]12CCCC(C)(C)[C@H]1C[C@H]3O[C@H]2OCCCCCc1cn(CCOCCN2C(=O)c3cccc4c(N5CCCCC5)ccc(c34)C2=O)nn1 | 1640 | 2780 | 870 | 3360 | 2.37 |
| [N-]=[N+]=NCCCCN1C(=O)c2cccc3c(N4CCCCC4)ccc(c23)C1=O | > 32000 | > 32000 | > 32000 | > 32000 | > 32 |
| [N-]=[N+]=NCCOCCN1C(=O)c2cccc3c(N4CCCCC4)ccc(c23)C1=O | > 32000 | > 32000 | > 32000 | > 32000 | > 32 |
| C=C1C(=O)[C@]23[C@H](O)[C@H]1C[C@H](O)[C@H]2[C@]12CCCC(C)(C)[C@H]1C[C@H]3O[C@H]2OCCCCc1cn(CCCCCCN2C(=O)c3cccc4c(N5CCCCC5)ccc(c34)C2=O)nn1 | 2090 | 2110 | 2200 | 2870 | 4.33 |
| C=C1C(=O)[C@]23[C@H](O)[C@H]1C[C@H](O)[C@H]2[C@]12CCCC(C)(C)[C@H]1C[C@H]3O[C@H]2OCCCCCc1cn(CCCCCN2C(=O)c3cccc4c(N5CCCCC5)ccc(c34)C2=O)nn1 | 1670 | 2440 | 780 | 2790 | 4.67 |
| C=C1C(=O)[C@]23[C@H](O)[C@H]1C[C@H](O)[C@H]2[C@]12CCCC(C)(C)[C@H]1C[C@H]3O[C@H]2OCCc1cn(CCCCN2C(=O)c3cccc4c(N5CCCCC5)ccc(c34)C2=O)nn1 | 1610 | 1510 | 740 | 1610 | 4.89 |
| C=C1C(=O)[C@]23[C@H](O)[C@H]1C[C@H](O)[C@H]2[C@]12CCCC(C)(C)[C@H]1C[C@H]3O[C@H]2OCCCc1cn(CCCCCN2C(=O)c3cccc4c(N5CCCCC5)ccc(c34)C2=O)nn1 | 3310 | 1530 | 1670 | 1380 | 3.94 |
| [N-]=[N+]=NCCCN1C(=O)c2cccc3c(N4CCCCC4)ccc(c23)C1=O | > 32000 | > 32000 | > 32000 | > 32000 | > 32 |
| C=C1C(=O)[C@]23[C@H](O)[C@H]1C[C@H](O)[C@H]2[C@]12CCCC(C)(C)[C@H]1C[C@H]3O[C@H]2OCCCCCCc1cn(CCCCN2C(=O)c3cccc4c(N5CCCCC5)ccc(c34)C2=O)nn1 | 2290 | 4590 | 6160 | 4520 | 8.82 |
